Measured values taken from patent publication US20260200923A1, “HETEROCYCLIC COMPOUNDS TARGETING THE NUDT5 PROTEIN” (Oxford University Innovation Limited, priority 2022, published 2026).

Legend:
[1] = biological target: NUDT5 (Homo sapiens, UniProt Q9UKK9); assay: AMP-Glo catalytic assay, NUDT5; type: biochemical; details: 2 nM NUDT5, ADPr substrate, 20 minutes, mean±SD
Description: (§1) To identify alternative X groups, a screening exercise was performed. […] Inhibition activities of the compounds were determined using AMP-Glo system (Promega). The compounds were diluted from 50 μM to 0 μM in a final reaction containing 20 mM Hepes, 100 mM NaCl, 0.5 mM TCEP, 1 mM MgCl2 and 0.1% BSA, pH 7.4. The reactions were performed in 1536 well plate in […] reaction volume with 2 nM of NUDT5 and NUDT14, and […] of ADPr as the substrate. The final DMSO concentration was 0.5% for all reactions. NUDT5 reactions were incubated for 20 minutes while NUDT14 reactions were carried out for 1 hour at room temperature. […] The reactions were further incubated with the 4 μl of Detection solution for 1 hour at room temperature. Luminescence signals were then measured in PHERAstar FSX plate reader. Experiments were done in triplicate sets and data were analysed by GraphPad Prism 9. Data are represented as the mean±SD of three biological experiments: […]

[2] = biological target: T1, NUDT14 (Homo sapiens, UniProt O95848); assay: AMP-Glo catalytic assay, NUDT14; type: biochemical
T1 sequence (O95848 1-222): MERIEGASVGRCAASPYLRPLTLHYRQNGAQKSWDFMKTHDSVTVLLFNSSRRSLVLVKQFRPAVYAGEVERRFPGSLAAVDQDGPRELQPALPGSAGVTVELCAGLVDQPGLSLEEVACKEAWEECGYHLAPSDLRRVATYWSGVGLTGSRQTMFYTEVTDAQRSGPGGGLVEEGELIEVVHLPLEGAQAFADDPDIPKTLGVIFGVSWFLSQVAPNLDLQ
Description: as §1

[3] = system: MTHFD1^K386E cells; assay: growth of MTHFD1^K386E cells with adenosine; type: cell-based; details: synthetase mutant cells
Description: HAP1 (KBM7-derived, Horizon Discovery, […]), and HAP1 MTHFD1^KO, MTHFD1^[…], and MTHFD1^[…] cell lines were cultured in Iscove's Modified Dulbecco's Medium (IMDM, Sigma), supplemented with 10% Fetal Bovine Serum (FBS, Sigma) and 1% Penicillin/Streptomycin (P/S, Sigma).

[4] = system: MTHFD1^K56R cells; assay: growth of MTHFD1^K56R cells in adenosine-containing media; type: cell-based
Description: HAP1 (KBM7-derived, Horizon Discovery, C859), and HAP1 MTHFD1^KO, MTHFD1^K56R, and MTHFD1^K386E cell lines were cultured in Iscove's Modified Dulbecco's Medium (IMDM, Sigma), supplemented with 10% Fetal Bovine Serum (FBS, Sigma) and 1% Penicillin/Streptomycin (P/S, Sigma).
MTHFD1^KO cells in dialyzed FBS media were treated with a single nucleotide or folic acid metabolite for 72 hours. Cells were then stained with Hoechst, imaged, and counted using an Operetta (Perkin Elmer). For the AMPK activator studies, cells were stained with Hoechst, imaged, and counted using an Opera (Perkin Elmer). Similarly, MTHFD1^K56R cells in dialyzed FBS media were treated with adenosine for 72 hours. Cells were then stained with Hoechst, imaged, and counted using an Operetta (Perkin Elmer).

[5] = system: HAP-1 cells; assay: 6-thioguanine assay (CellTiter-Glo viability); type: cell-based; details: 0.2 μg/ml 6-thioguanine, 72 h; HAP1 (and NB4, FIG. 11)
Description: NB-4 and HAP1 cells (1000 cells/well in 40 uL) were seeded onto a 384-well plate containing compounds. DMSO or 0.2 μg/ml 6-thioguanine (A4882, Sigma-Aldrich) was added into respective wells. After 72 h incubation cell viability was measured by using CellTiter-Glo 2.0 Assay (G9242, Promega). Compounds in the 384-well plates were prepared by using Echo Acoustic Dispenser.

[6] = biological target: T2, luciferase-tagged NUDT5 (Homo sapiens, UniProt Q9UKK9); assay: NanoBRET target engagement assay; type: cell-based; details: live cells, 2 h
T2 construct: expressed in transfected cells; host or cells: HEK293T
Description: For NanoBRET target engagement assay, intracellular TE Nano-Glo substrate/inhibitor (N2161, Promega) was used according to the manufacturer's instruction. In brief, 200,000 HEK293T cells/ml was seeded in a T-75 flask. N-terminal NanoLuciferse NUDT5 was reverse transfected into the cells using Fugene HD transfection reagent (E2312, Promega). After 24 h the transfected HEK293 (200,000 cells/ml) were replated onto a 384-well plate containing compounds. 2.5 nM NU008116a was used as the final tracer concentration. After 2 h, NanoLuc substrate and inhibitor was added into each well and the signals were measured by PHERAstar Microplate Reader.
Compounds were dispensed in the 384-well plates by using Echo Acoustic Dispenser.

C=CC(=O)N1CCC[C@@H](n2nc(-c3ccc(Oc4ccccc4)cc3)c3c(N)ncnc32)C1 [Ibrutinib, reference compound]
IC50 [1]: 375 ± 12 nM
IC50 [2]: 974 ± 26 nM

Nc1ncnc2c1ncn2[C@@H]1O[C@H](CO)[C@@H](O)[C@H]1O [adenosine]
effect of addition on growth [3]: enhanced the growth
effect of addition on proliferation ([4]; cyclohydrolase mutant cells, 50 μM adenosine): caused a strong antiproliferative response

CN1C(=O)CCC(N2C(=O)c3ccc(N4CCN(CC5CCN(C(=O)N6CCN(c7nc8c(c(=O)n(C)c(=O)n8C)n7Cc7nnc(-c8ccc(Cl)c(Cl)c8)o7)CC6)CC5)CC4)cc3C2=O)C1=O (stereo not shown) [dNUDT5nc, 7-((5-(3,4-dichlorophenyl)-1,3,4-oxadiazol-2-yl)methyl)-1,3-dimethyl-8-(4-(4-((4-(2-(1-methyl-2,6-dioxopiperidin-3-yl)-1,3-dioxoisoindolin-5-yl)piperazin-1-yl)methyl)piperidine-1-carbonyl)piperazin-1-yl)-3,7-dihydro-1H-purine-2,6-dione]
rescue of 6-TG toxicity [5]: neither the negative control nor TH5427 gave any significant effects
effect on adenosine toxicity / viability ([4]; adenosine-containing media, 72 h): did not cause any effects
NUDT5 engagement / recruitment [6]: engaged their cognate target NUDT5 in live cells
